Measured values as given in patent US11014911B2, “CDK2 inhibitors” (Pfizer Inc., priority 2019, dated 2021).
Like-named read-outs stand apart in the source and are kept apart here.

Tests used:
[1] = target: CDK2/Cyclin E1 full length (Homo sapiens (Human), UniProt P24941); test: CDK2/Cyclin E1 full length mobility shift assay; assay type: biochemical
GSK3β (H350L) [2] = target: T1, GSK3β (H350L) (Homo sapiens (Human), UniProt P49841); test: biochemical; details: GSK3β Ki (nM)
Description: (§1) The assay was initiated with the addition of ATP, following 15 minutes pre-incubation of enzyme and inhibitor at room temperature in the reaction mixture. The reaction was stopped after 30 minutes at room temperature by the addition of 50 μL of 80 mM EDTA.

GSK3β (H350L) [3] = target: T1, GSK3β (H350L); details: read-out: GSK3β Ki
Description: as §1

T1 sequence (P49841 whole entry, stated change not applied): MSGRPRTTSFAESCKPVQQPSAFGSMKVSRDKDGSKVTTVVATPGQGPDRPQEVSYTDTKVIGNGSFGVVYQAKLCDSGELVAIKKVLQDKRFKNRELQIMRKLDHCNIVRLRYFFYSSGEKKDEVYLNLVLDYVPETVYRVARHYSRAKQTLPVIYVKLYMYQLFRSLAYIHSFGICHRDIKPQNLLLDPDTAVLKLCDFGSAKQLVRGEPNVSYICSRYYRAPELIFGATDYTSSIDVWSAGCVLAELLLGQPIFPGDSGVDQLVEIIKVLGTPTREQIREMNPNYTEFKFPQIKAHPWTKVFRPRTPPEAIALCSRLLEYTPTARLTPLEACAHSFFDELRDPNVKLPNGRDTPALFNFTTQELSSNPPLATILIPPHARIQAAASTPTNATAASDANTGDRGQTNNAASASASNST

CCC(NC(=O)O[C@@H]1CC[C@H](c2cc(NC(=O)Cc3cc(C)no3)n[nH]2)C1)C(F)(F)F (single isomer, unassigned) [Example 397]
Ki [1]: 1.87 nM
Ki (GSK3β (H350L) [2]): 155 nM

CC1(NC(=O)O[C@@H]2CC[C@H](c3cc(NC(=O)Cc4ccno4)n[nH]3)C2)CCOC1 (single isomer, unassigned) [Example 473]
Ki [1]: 0.36 nM
Ki (GSK3β (H350L) [2]): 66.2 nM

CCC(NC(=O)O[C@@H]1CC[C@H](c2cc(NC(=O)Cc3ccc(C)nc3)n[nH]2)C1)C(F)(F)F (single isomer, unassigned) [Example 399]
Ki [1]: 0.47 nM
Ki (GSK3β (H350L) [2]): 68.8 nM

CC(CC(F)(F)F)NC(=O)O[C@@H]1CC[C@H](c2cc(NC(=O)Cc3ccno3)n[nH]2)C1 (single isomer, unassigned) [Example 86]
Ki [1]: 0.25 nM
Ki (GSK3β (H350L) [2]): 12.9 nM

CC1(NC(=O)O[C@@H]2CC[C@H](c3cc(NC(=O)Cc4ccccc4)n[nH]3)C2)CCOC1 (single isomer, unassigned) [Example 124]
Ki [1]: 0.19 nM
Ki (GSK3β (H350L) [2]): 80.7 nM

Cc1cnc(CC(=O)Nc2cc([C@H]3CC[C@@H](OC(=O)NC(C)CC(F)(F)F)C3)[nH]n2)o1 (single isomer, unassigned) [Example 82]
Ki [1]: 0.19 nM
Ki (GSK3β (H350L) [2]): 12.6 nM

CCC1CCN1C(=O)O[C@@H]1CC[C@H](c2cc(NC(=O)Cc3cc(C)no3)n[nH]2)C1 (single isomer, unassigned) [Example 597]
Ki [1]: 0.54 nM
Ki (GSK3β (H350L) [2]): 20.9 nM

COc1ncc(CC(=O)Nc2cc([C@H]3CC[C@@H](OC(=O)NC4(C)CCOC4)C3)[nH]n2)s1 (single isomer, unassigned) [Example 127]
Ki [1]: 0.23 nM
Ki (GSK3β (H350L) [2]): 20.1 nM

COc1cc(CC(=O)Nc2cc([C@H]3CC[C@@H](OC(=O)N[C@@H](C)[C@H](C)F)C3)[nH]n2)ccn1 (single isomer, unassigned) [Example 385, (1R,3S)-3-(3-{[(2-methoxypyridin-4-yl)acetyl]amino}-1H-pyrazol-5-yl)cyclopentyl [(2S*,3S*)-3-fluorobutan-2-yl]carbamate]
Ki [1]: 0.52 nM
Ki (GSK3β (H350L) [2]): 25.9 nM

CCC(CO)CNC(=O)O[C@@H]1CC[C@H](c2cc(NC(=O)Cc3cc(C)no3)n[nH]2)C1 (single isomer, unassigned) [Example 525]
Ki [1]: 1.24 nM
Ki (GSK3β (H350L) [2]): 7.01 nM

CCCNC(=O)O[C@H]1CC[C@@H](c2cc(NC(=O)C3COc4ccccc43)n[nH]2)C1 (single isomer, unassigned) [Example 24]
Ki [1]: 0.26 nM
Ki (GSK3β (H350L) [2]): 20.6 nM

COc1ccc(S(C)(=O)=O)c(CC(=O)Nc2cc([C@H]3CC[C@@H](OC(=O)NC(C)C(F)(F)F)C3)[nH]n2)c1 (single isomer, unassigned) [Example 291]
Ki [1]: 0.43 nM
Ki (GSK3β (H350L) [2]): > 47.6 nM

COc1cc(CC(=O)Nc2cc([C@H]3CC[C@@H](OC(=O)NC(C)CC(F)(F)F)C3)[nH]n2)ccn1 (single isomer, unassigned) [Example 77]
Ki [1]: 0.39 nM
Ki (GSK3β (H350L) [2]): 19.7 nM

CCC(CO)CNC(=O)O[C@@H]1CC[C@H](c2cc(NC(=O)Cc3ccc(OC)nc3)n[nH]2)C1 (single isomer, unassigned) [Example 532]
Ki [1]: 0.89 nM
Ki (GSK3β (H350L) [2]): 2.97 nM

CC(CC(F)(F)F)N(C)C(=O)O[C@@H]1CC[C@H](c2cc(NC(=O)Cc3cnn(C)c3)n[nH]2)C1 (single isomer, unassigned) [Example 413]
Ki [1]: 0.44 nM
Ki (GSK3β (H350L) [2]): 14.7 nM

CCC(NC(=O)O[C@@H]1CC[C@H](c2cc(NC(=O)Cc3ccc(C)nc3)n[nH]2)C1)C(F)(F)F (single isomer, unassigned) [Example 398]
Ki [1]: 0.65 nM
Ki (GSK3β (H350L) [2]): 44.1 nM

CCC1(C)CCN1C(=O)O[C@@H]1CC[C@H](c2cc(NC(=O)Cc3cc(C)no3)n[nH]2)C1 (single isomer, unassigned) [Example 603]
Ki [1]: 0.07 nM
Ki (GSK3β (H350L) [2]): 13.8 nM

CCC(NC(=O)O[C@@H]1CC[C@H](c2cc(NC(=O)Cc3ccnc(OC)c3)n[nH]2)C1)C(F)(F)F (single isomer, unassigned) [Example 405]
Ki [1]: 1.37 nM
Ki (GSK3β (H350L) [2]): 97.9 nM

COc1ncc(CC(=O)Nc2cc([C@H]3CC[C@@H](OC(=O)NC4(C)CCOC4)C3)[nH]n2)s1 (single isomer, unassigned) [Example 126]
Ki [1]: 0.27 nM
Ki (GSK3β (H350L) [2]): 26.6 nM

CCC(CO)CNC(=O)O[C@@H]1CC[C@H](c2cc(NC(=O)Cc3ccc(OC)nc3)n[nH]2)C1 (single isomer, unassigned) [Example 533]
Ki [1]: 0.77 nM
Ki (GSK3β (H350L) [2]): 1.41 nM

CC(CC(F)(F)F)NC(=O)O[C@@H]1CC[C@H](c2cc(NC(=O)Cc3cnn(C(C)C)c3)n[nH]2)C1 (single isomer, unassigned) [Example 408]
Ki [1]: 0.29 nM
Ki (GSK3β (H350L) [2]): 17.9 nM

COc1cc(CC(=O)Nc2cc([C@H]3CC[C@@H](OC(=O)NC(C)C(C)(F)F)C3)[nH]n2)ccn1 (single isomer, unassigned) [Example 393]
Ki [1]: 0.97 nM
Ki (GSK3β (H350L) [2]): 34 nM

Cc1ncc(CC(=O)Nc2cc([C@H]3CC[C@@H](OC(=O)NC4(C)CCOC4)C3)[nH]n2)s1 (single isomer, unassigned) [Example 481]
Ki [1]: 0.53 nM
Ki (GSK3β (H350L) [2]): 44.6 nM

COCc1cc(C(=O)Nc2cc([C@H]3CC[C@@H](OC(=O)NC4(C)CC4)C3)[nH]n2)n(C)n1 [Example 8, (1R,3S)-3-[3-({[3-(methoxymethyl)-1-methyl-1H-pyrazol-5-yl]carbonyl}amino)-1H-pyrazol-5-yl]cyclopentyl (1-methylcyclopropyl)carbamate]
Ki [1]: 0.5 nM
Ki (GSK3β (H350L) [2]): 667 nM

CC(CC(F)(F)F)NC(=O)O[C@@H]1CC[C@H](c2cc(NC(=O)Cc3ccon3)n[nH]2)C1 (single isomer, unassigned) [Example 64]
Ki [1]: 0.14 nM
Ki (GSK3β (H350L) [2]): 18.7 nM

CCC(CO)CNC(=O)O[C@@H]1CC[C@H](c2cc(NC(=O)Cc3ccnc(OC)c3)n[nH]2)C1 (single isomer, unassigned) [Example 534]
Ki [1]: 0.85 nM
Ki (GSK3β (H350L) [2]): 4.63 nM

CCC1CCN1C(=O)O[C@@H]1CC[C@H](c2cc(NC(=O)Cc3cc(C)no3)n[nH]2)C1 (single isomer, unassigned) [Example 598]
Ki [1]: 0.78 nM
Ki (GSK3β (H350L) [2]): 16.4 nM

CC(CC(F)F)NC(=O)O[C@@H]1CC[C@H](c2cc(NC(=O)Cc3cnn(C)c3)n[nH]2)C1 (single isomer, unassigned) [Example 386]
Ki [1]: 0.66 nM
Ki (GSK3β (H350L) [2]): 45.9 nM

COc1ccc(CC(=O)Nc2cc([C@H]3CC[C@@H](OC(=O)N[C@H]4CC[C@@](C)(O)CC4)C3)[nH]n2)cc1 [Example 566, (1R,3S)-3-(3-{[(4-methoxyphenyl)acetyl]amino}-1H-pyrazol-5-yl)cyclopentyl (cis-4-hydroxy-4-methylcyclohexyl)carbamate]
Ki [1]: 0.79 nM
Ki (GSK3β (H350L) [3]): 37.6 nM

COc1ncc(CC(=O)Nc2cc([C@H]3CC[C@@H](OC(=O)N4CCOC[C@H]4C)C3)[nH]n2)s1 [Example 647, (1R,3S)-3-(3-{[(2-methoxy-1,3-thiazol-5-yl)acetyl]amino}-1H-pyrazol-5-yl)cyclopentyl (3R)-3-methylmorpholine-4-carboxylate]
Ki [1]: 1.08 nM
Ki (GSK3β (H350L) [3]): 3.39 nM

CC[C@H](C)NC(=O)O[C@@H]1CC[C@H](c2cc(NC(=O)Cc3cc(O)ncc3S(C)(=O)=O)n[nH]2)C1 [Example 52]
Ki [1]: 0.2 nM
Ki (GSK3β (H350L) [3]): 10.9 nM

CC1(C)CCCN1C(=O)O[C@@H]1CC[C@H](c2cc(NC(=O)Cc3cnco3)n[nH]2)C1 [Example 138]
Ki [1]: 0.23 nM
Ki (GSK3β (H350L) [3]): 7.06 nM

COc1cc(CC(=O)Nc2cc([C@@H]3CC[C@H](OC(=O)N[C@H]4CC[C@@H](O)CC4)C3)[nH]n2)ccn1 [Example 552, (1S,3R)-3-(3-{[(2-methoxypyridin-4-yl)acetyl]amino}-1H-pyrazol-5-yl)cyclopentyl (cis-4-hydroxycyclohexyl)carbamate]
Ki [1]: 0.29 nM
Ki (GSK3β (H350L) [3]): 2.41 nM

CC(C)NC(=O)O[C@H]1CC[C@@H](c2cc(NC(=O)c3cnnn3C)n[nH]2)C1 [Example 261, (1S,3R)-3-(3-{[(1-methyl-1H-1,2,3-triazol-5-yl)carbonyl]amino}-1H-pyrazol-5-yl)cyclopentyl propan-2-ylcarbamate]
Ki [1]: 1 nM
Ki (GSK3β (H350L) [3]): 121 nM

CCN(C)C(=O)O[C@@H]1CC[C@H](c2cc(NC(=O)Cc3ccc(OC)cc3)n[nH]2)C1 [Example 240, (1R,3S)-3-(3-{[(4-methoxyphenyl)acetyl]amino}-1H-pyrazol-5-yl)cyclopentyl ethyl(methyl)carbamate]
Ki [1]: 0.73 nM
Ki (GSK3β (H350L) [3]): 16.1 nM

CC[C@H](C)NC(=O)O[C@@H]1CC[C@H](c2cc(NC(=O)Cc3ccc(OC)cc3S(C)(=O)=O)n[nH]2)C1 [Example 44]
Ki [1]: 0.21 nM
Ki (GSK3β (H350L) [3]): 47.8 nM

CCCNC(=O)O[C@@H]1CC[C@H](c2cc(NC(=O)Cc3cnc(C)s3)n[nH]2)C1 [Example 185, (1R,3S)-3-(3-{[(2-methyl-1,3-thiazol-5-yl)acetyl]amino}-1H-pyrazol-5-yl)cyclopentyl propylcarbamate]
Ki [1]: 0.71 nM
Ki (GSK3β (H350L) [3]): 13 nM

COc1cc(CC(=O)Nc2cc([C@@H]3CC[C@H](OC(=O)N[C@H]4CC[C@](C)(O)CC4)C3)[nH]n2)ccn1 [Example 569, (1S,3R)-3-(3-{[(2-methoxypyridin-4-yl)acetyl]amino}-1H-pyrazol-5-yl)cyclopentyl (trans-4-hydroxy-4-methylcyclohexyl)carbamate]
Ki [1]: 1.25 nM
Ki (GSK3β (H350L) [3]): 4.31 nM

CC[C@H](C)NC(=O)O[C@@H]1CC[C@H](c2cc(NC(=O)Cc3ccc(OC)nc3)n[nH]2)C1 [Example 346, (1R,3S)-3-(3-{[(6-methoxypyridin-3-yl)acetyl]amino}-1H-pyrazol-5-yl)cyclopentyl (2S)-butan-2-ylcarbamate]
Ki [1]: 0.26 nM
Ki (GSK3β (H350L) [3]): 10.7 nM

CC[C@H](C)NC(=O)O[C@@H]1CC[C@H](c2cc(NC(=O)Cc3ccc4c(cnn4C)c3)n[nH]2)C1 [Example 48]
Ki [1]: 0.17 nM
Ki (GSK3β (H350L) [3]): 9.58 nM

COc1cc(CC(=O)Nc2cc([C@H]3CC[C@@H](OC(=O)N(C)C(C)C)C3)[nH]n2)ccn1 [Example 58]
Ki [1]: 0.21 nM
Ki (GSK3β (H350L) [3]): 9.86 nM

Cc1cnc(CC(=O)Nc2cc([C@H]3CC[C@@H](OC(=O)NC4(C)CCC4)C3)[nH]n2)o1 [Example 118]
Ki [1]: 0.22 nM
Ki (GSK3β (H350L) [3]): 17.8 nM
